In test [1] the test system is synthesis of LTB4 in human whole blood. The experiment in a line: Human whole blood LTB4 production inhibition assay. It is filed as cell-based. The settings on record: heparinized human whole blood, calcimycin 20 μM, plasma LTB4; read-out: HuWB IC50. Put shortly:
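LTB4 levels in plasma were measured by antibody-based HTRF after heparinized human whole blood, pretreated with compound (15 min, 37° C), was challenged with 20 μM calcimycin for 30 min at 37° C.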

The target of test [2] is T1, recombinant human FLAP protein (Homo sapiens, UniProt P20292).
T1 construct: made in house; host or cells: Sf9 insect cells (membrane fraction, 100,000 x g pellet)
T1 sequence (P20292 1-161): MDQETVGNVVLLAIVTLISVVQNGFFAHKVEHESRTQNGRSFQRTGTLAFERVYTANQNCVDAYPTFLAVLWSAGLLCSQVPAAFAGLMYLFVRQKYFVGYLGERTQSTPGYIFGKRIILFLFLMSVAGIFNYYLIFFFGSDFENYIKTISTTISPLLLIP
The experiment in a line: FLAP binding assay (SPA, displacement of [125I]L-691,831). To be noted: membranes of sf9 cells expressing human FLAP, [125I]L-691,831 probe; read-out: hFLAP binding IC50. Put shortly:
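Membranes from sf9 cells expressing human FLAP (5 μg/well) were bound to WGA SPA beads (200 μg/well). Nonspecific binding was defined with 10 μM unlabelled L-691,831.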

The results in this text go back to patent US9073895B2 (Boehringer Ingelheim International GmbH, priority 2010, dated 2015).

Take `COc1cncc(-c2ccc(NC(=O)C3(c4ccc(-c5cnc(N)c(CO)c5)cc4)CCOCC3)nc2)c1` [Example 171, 4-{4-[6-amino-5-(hydroxymethyl)pyridin-3-yl]phenyl}-N-(5'-methoxy-3,3'-bipyridin-6-yl)tetrahydro-2H-pyran-4-carboxamide]: the IC50 in test [1] was 566 nM; in test [2], 2.05 nM.
Regarding `Nc1ncc(-c2ccc(C3(C(=O)Nc4ccc(Oc5ccccc5)cn4)CCOCC3)cc2)cn1` [Example 173, 4-[4-(2-aminopyrimidin-5-yl)phenyl]-N-(5-phenoxypyridin-2-yl)tetrahydro-2H-pyran-4-carboxamide], the IC50 in test [1] is 930 nM; in test [2], 18 nM.
Regarding `O=C(Nc1ccc(Oc2ccccc2)cn1)C1(c2ccc(-c3cnc4[nH]ccc4c3)cc2)CCOCC1` [Example 174, N-(5-phenoxypyridin-2-yl)-4-[4-(1H-pyrrolo[2,3-b]pyridin-5-yl)phenyl]tetrahydro-2H-pyran-4-carboxamide], the figures for the IC50 in test [1] and in test [2] were 686 nM and 18.1 nM, respectively.
For the compound `COc1cncc(-c2ccc(NC(=O)C3(c4ccc(-c5cnc6c(c5)CCN6)cc4)CCOCC3)nc2)c1` [Example 175, 4-[4-(2,3-dihydro-1H-pyrolo[2,3-b]pyridin-5-yl)phenyl]-N-(5'-methoy-3,3'-bipyridin-6-yl)tetrahydro-2H-pyran-4-carboxamide], the IC50 is 1280 nM in test [1] and 22 nM in test [2].
For `Cc1nc(-c2ccc(NC(=O)C3(c4ccc(-c5cnc(N)c(CO)c5)cc4)CCOCC3)nc2)cs1` [Example 176, 4-{4-[6-amino-5-(hydroxymethyl)pyridin-3-yl]phenyl}-N-[5-(2-methyl-1,3-thiazol-4-yl)pyridin-2-yl]tetrahydro-2H-pyran-4-carboxamide], the IC50 in test [1] came out at 712 nM; in test [2], 6.65 nM.
As for `Nc1ncc(-c2ccc(C3(C(=O)Nc4ccncc4)CCC3)cc2)cn1` [Example 177, 1-[4-(2-aminopyrimidin-5-yl)phenyl]-N-(pyridin-4-yl)cyclobutanecarboxamide], the IC50 in test [1] was found to be 217 nM; in test [2], 5.1 nM.
In the case of `Cc1noc(-c2ccc(NC(=O)C3(c4ccc(-c5cnc(N)nc5)cc4)CCOCC3)nc2)n1` [Example 178, 4-[4-(2-aminopyrimidin-5-yl)phenyl]-N-[5-(3-methyl-1,2,4-oxadiazol-5-yl)pyridin-2-yl]tetrahydro-2H-pyran-4-carboxamide], the IC50 in test [1] came out at 557 nM; in test [2], 35.5 nM.
For the compound `N#Cc1ccc(NC(=O)C2(c3ccc(-c4cnc(N)c(CO)c4)cc3)CCOCC2)nc1` [Example 179, 4-{4-[6-amino-5-(hydroxymethyl)pyridin-3-yl]phenyl}-N-(5-cyanopyridin-2-yl)tetrahydro-2H-pyran-4-carboxamide], the IC50 in test [1] came out at 388 nM; in test [2] it was 24.7 nM.
Consider `CC(C)C(C)(C(=O)Nc1cccnc1)c1ccc(-c2cnc3[nH]ccc3c2)cc1` (stereo not shown) [Example 180, 2,3-dimethyl-N-(pyridin-3-yl)-2-[4-(1H-pyrrolo[2,3-b]pyridin-5-yl)phenyl]butanamide], for which the IC50 in test [1] came to 402 nM; in test [2], 6.3 nM.
As to `Cc1nc(-c2ccc(NC(=O)C3(c4ccc(-c5cnc(N)c(C)n5)cc4)CCOCC3)nc2)cs1` [Example 182, 4-[4-(5-amino-6-methylpyrazin-2-yl)phenyl]-N-[5-(2-methyl-1,3-thiazol-4-yl)pyridin-2-yl]tetrahydro-2H-pyran-4-carboxamide], the figures for the IC50 in test [1] and in test [2] were 1060 nM and 32.5 nM, respectively.
Consider `Nc1ncc(-c2ccc(C3(C(=O)Nc4cccnc4)CCC3)cc2)cn1` [Example 183, 1-[4-(2-aminopyrimidin-5-yl)phenyl]-N-(pyridin-3-yl)cyclobutanecarboxamide], for which the IC50 in test [1] stood at 480 nM; in test [2], 51.6 nM.
Take `CC(C)C(C)(C(=O)Nc1cccnc1)c1ccc(-c2cnc(N)nc2)cc1` (stereo not shown) [Example 184, 2-[4-(2-aminopyrimidin-5-yl)phenyl]-2,3-dimethyl-N-(pyridin-3-yl)butanamide]: the half-inhibitory concentration (IC50) in test [1] was found to be 1470 nM; in test [2], 39 nM.
With `Nc1ncc(-c2ccc(C3(C(=O)Nc4ccncn4)CCC3)cc2)cn1` [Example 185, 1-[4-(2-aminopyrimidin-5-yl)phenyl]-N-(pyrimidin-4-yl)cyclobutanecarboxamide], the IC50 in test [1] turned out to be 955 nM; in test [2] it was 17.5 nM.
As to `Cc1cc(NC(=O)C2(c3ccc(-c4cnc(N)nc4)cc3)CCC2)ccn1` [Example 186, 1-[4-(2-aminopyrimidin-5-yl)phenyl]-N-(2-methylpyridin-4-yl)cyclobutanecarboxamide], the IC50 in test [1] turned out to be 334 nM; in test [2], 3.2 nM.
Turning to `COc1cc(NC(=O)C2(c3ccc(-c4cnc(N)nc4)cc3)CCC2)ccn1` [Example 187, 1-[4-(2-aminopyrimidin-5-yl)phenyl]-N-(2-methoxypyridin-4-yl)cyclobutanecarboxamide], the IC50 is 517 nM in test [1] and 5.1 nM in test [2].
Taken in the same sequence, the figures for `O=C(Nc1ccncn1)C1(c2ccc(-c3cnc4[nH]ccc4c3)cc2)CCC1` [Example 188, N-(pyrimidin-4-yl)-1-[4-(1H-pyrrolo[2,3-b]pyridin-5-yl)phenyl]cyclobutanecarboxamide] were 130 nM and 1.65 nM.
Regarding `Cc1cc(NC(=O)C2(c3ccc(-c4cnc5[nH]ccc5c4)cc3)CCC2)ccn1` [Example 189, N-(2-methylpyridin-4-yl)-1-[4-(1H-pyrrolo[2,3-b]pyridin-5-yl)phenyl]cyclobutanecarboxamide], the results for the IC50 in test [1] and in test [2] were 190 nM and 1.45 nM, respectively.
Take `COc1cc(NC(=O)C2(c3ccc(-c4cnc5[nH]ccc5c4)cc3)CCC2)ccn1` [Example 190, N-(2-methoxypyridin-4-yl)-1-[4-(1H-pyrrolo[2,3-b]pyridin-5-yl)phenyl]cyclobutanecarboxamide]: the values for the IC50 in test [1] and in test [2] were 149 nM and 2.25 nM, respectively.
Take `Cc1nc(-c2ccc(NC(=O)C3(c4ccc(-c5ccc(N)nc5)cc4)CCOCC3)nc2)cs1` [Example 191, 4-[4-(6-aminopyridin-3-yl)phenyl]-N-[5-(2-methyl-1,3-thiazol-4-yl)pyridin-2-yl]tetrahydro-2H-pyran-4-carboxamide]: the IC50 is 1950 nM in test [1] and 27.5 nM in test [2].
For `CNc1ncc(-c2ccc(C3(C(=O)Nc4cccnc4)CCC3)cc2)cn1` [Example 192, 1-{4-[2-(methylamino)pyrimidin-5-yl]phenyl}-N-(pyridin-3-yl)cyclobutanecarboxamide], the IC50 turned out to be 861 nM in test [1] and 32 nM in test [2].
For `CNc1ncc(-c2ccc(C3(C(=O)Nc4ccc(-c5csc(C)n5)cn4)CCOCC3)cc2)cn1` [Example 193, 4-{4-[2-(methylamino)pyrimidin-5-yl]phenyl}-N-[5-(2-methyl-1,3-thiazol-4-yl)pyridin-2-yl]tetrahydro-2H-pyran-4-carboxamide], the IC50 in test [1] was 1650 nM; in test [2], 10.1 nM.
As for `Nc1ncc(-c2ccc(C3(C(=O)Nc4ccc(Oc5ccccc5)cn4)CCC3)cc2)cn1` [Example 194, 1-[4-(2-aminopyrimidin-5-yl)phenyl]-N-(5-phenoxypyridin-2-yl)cyclobutanecarboxamide], the IC50 in test [1] was 577 nM; in test [2] it was 19.2 nM.
On the same counts, the results for `N#Cc1ccc(NC(=O)C2(c3ccc(-c4cnc(N)nc4)cc3)CCC2)cc1Cl` [Example 195, 1-[4-(2-aminopyrimidin-5-yl)phenyl]-N-(3-chloro-4-cyanophenyl)cyclobutane-carboxamide] are 174 nM and 2.7 nM.
On to `Cc1cnccc1NC(=O)C1(c2ccc(-c3cnc(N)nc3)cc2)CCC1` [Example 196, 1-[4-(2-aminopyrimidin-5-yl)phenyl]-N-(3-methylpyridin-4-yl)cyclobutanecarboxamide], for which the IC50 amounted to 2910 nM in test [1] and 50.7 nM in test [2].
Taken in the same sequence, the figures for `Cc1nc(-c2ccc(NC(=O)C3(c4ccc(-c5cnc6[nH]cnc6c5)cc4)CCOCC3)nc2)cs1` [Example 197, 4-[4-(3H-imidazo[4,5-b]pyridin-6-yl)phenyl]-N-[5-(2-methyl-1,3-thiazol-4-yl)pyridin-2-yl]tetrahydro-2H-pyran-4-carboxamide] were 2440 nM and 27 nM.
Taken in the same sequence, the figures for `O=C(Nc1ccc(Oc2ccccc2)cn1)C1(c2ccc(-c3cnc4[nH]ccc4c3)cc2)CCC1` [Example 198, N-(5-phenoxypyridin-2-yl)-1-[4-(1H-pyrrolo[2,3-b]pyridin-5-yl)phenyl]cyclobutane-carboxamide] were 180 nM and 3.75 nM.
Regarding `COc1cc(NC(=O)C2(c3ccc(-c4cnc(N)nc4)cc3)CCC2)ncn1` [Example 199, 1-[4-(2-aminopyrimidin-5-yl)phenyl]-N-(6-methoxypyrimidin-4-yl)cyclobutanecarboxamide], the IC50 in test [1] was 1380 nM; in test [2] it was 5.7 nM.
On to `Nc1ncc(-c2ccc(C3(C(=O)Nc4nccs4)CCC3)cc2)cn1` [Example 200, 1-[4-(2-aminopyrimidin-5-yl)phenyl]-N-(1,3-thiazol-2-yl)cyclobutanaecarboxamide], for which the IC50 in test [1] is 2010 nM; in test [2] it was 19 nM.
For the compound `Nc1ncc(-c2ccc(C3(C(=O)Nc4ccc(-c5ccccc5)cn4)CCC3)cc2)cn1` [Example 201, 1-[4-(2-aminopyrimidin-5-yl)phenyl]-N-(5-phenylpyridin-2-yl)cyclobutanecarboxamide], the IC50 in test [1] came to 224 nM; in test [2], 3.75 nM.
